Six compounds from article PMC2917805 (Journal of medicinal chemistry, 2010) can be followed below.

SMILES strings stand for the structures.

The nature of data set [1]: Stability in RPMI 1640 cell culture medium. The data set is classed as physicochemical.
Data set [2] has as its system HL-60 human acute leukemia cells. The data set can be described thus: Cell cycle analysis, subG1 accumulation. The data set is classed as cell-based.
Another data set deals with iNOS protein expression. As to the kind of experiment: Western blot of iNOS expression in LPS-stimulated RAW 264.7 cells. The format is cell-based. Conditions: 34 μM; for effect on iNOS protein expression: LPS-stimulated RAW 264.7 cells; for relative iNOS protein expression: relative to LPS-treated control, LPS 1 μg/mL, 18 h.
Data set [3] deals with quinone reductase 1 (QR1). As to the kind of experiment: QR activity in cell culture. The data set is classed as cell-based, murine. As to conditions: Hepa 1c1c7 cells.
Data set [4] in a line: DPPH free-radical scavenging. Background: DPPH is a stable violet radical that fades when it is reduced.
Where [5] appears, read: cell culture medium, 37 °C, 24 h.

One may read the fraction remaining as the share of the starting amount still present when the sample was taken. Higher therefore signals greater stability. As to `Oc1ccc(/C=C/c2cc(O)cc(O)c2)cc1` [Resveratrol, 3,5,4′-trihydroxystilbene, reference compound], in data set [1] (RPMI 1640 cell culture medium), the share remaining at 0 h came out at 100 ± 0.3% and the amount remaining at 24 h turned out to be 46.8 ± 8.7%. The “degradation during 24 h” value in data set [1] (setting [5]) is ~ 50%. In data set [2], the “accumulation of HL-60 cells in subG1” value was “active”. In the data set on iNOS protein expression, the “effect on iNOS protein expression” value is recorded as “moderately suppressed the expression of iNOS”.
On to `O=S(=O)([O-])Oc1ccc(/C=C/c2cc(OS(=O)(=O)[O-])cc(OS(=O)(=O)[O-])c2)cc1.[K+].[K+].[K+]` [compound 2, Resveratrol Tripotassium 3,5,4′-Sulfate], for which the “QR1 CD (concentration to double the expression of QR1)” value (“QR1 CD” for short) in data set [3] was more than 11.7 µM. Also, the “DPPH free radical scavenging” value in data set [4] is “inactive”.
Turning to `O=S(=O)([O-])Oc1ccc(/C=C/c2cc(O)cc(OS(=O)(=O)[O-])c2)cc1.[K+].[K+]` [compound 3, Resveratrol Dipotassium 3,4′-Sulfate], the “QR1 CD” value in data set [3] is more than 10.1 µM.
Turning to `O=S(=O)([O-])Oc1cc(/C=C/c2ccc(O)cc2)cc(OS(=O)(=O)[O-])c1.[K+].[K+]` [compound 4, Resveratrol Tripotassium 3,5-Sulfate], in data set [3], the “QR1 CD” value was more than 10.1 µM.
As to `O=S(=O)([O-])Oc1cc(O)cc(/C=C/c2ccc(O)cc2)c1.[K+]` [compound 5, Resveratrol Potassium 3-Sulfate], in the data set on iNOS protein expression, the “effect on iNOS protein expression” value was “moderately suppressed the expression of iNOS” and the “relative iNOS protein expression” value was determined as 0.54.
With `O=S(=O)([O-])Oc1ccc(/C=C/c2cc(O)cc(O)c2)cc1.[K+]` [compound 7, Resveratrol Potassium 4′-Sulfate], in data set [1] (buffer), the amount remaining at 0 h stood at 100 ± 2.2%, the fraction remaining at 12 h was 95.1 ± 3% and the share remaining at 24 h was found to be 98.8 ± 3.1%. The “stability” value in data set [1] (setting [5]) is “stable for 24 h”. For the same compound, in data set [3], the “QR1 CD” value is more than 6.9 µM. In addition, in the data set on iNOS protein expression, the “effect on iNOS protein expression” value is recorded as “moderately suppressed the expression of iNOS” and the “relative iNOS protein expression” value is 0.67.
